Assay results reported in US20220306647A1, “NOVEL INDOLE-2-CARBOXAMIDES ACTIVE AGAINST THE HEPATITUS B VIRUS (HBV)” (AICURIS GMBH & CO. KG, priority 2019, published 2022).
Like-named read-outs stand apart in the source and are kept apart here.

Columns and labels:
[1] = molecular target: T1, HBV core protein (C-terminal truncated core protein, 149 amino acids of the N-terminal assembly domain, BODIPY-FL labelled) (UniProt P03146); assay: Biochemical capsid assembly assay (fluorescence quenching)
T1 construct: fused on or other part: A single cysteine added after residue 149, at position 150; It carries the BODIPY-FL maleimide label
In short: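 Fluorescence quenching of BODIPY-FL-labelled core dimers (1.0 to 2.0 μM) in 50 mM HEPES pH 7.5; compounds at 8 concentrations, 0.5 log-unit dilutions from top 100, 31.6 or 10 μM, 0.5% DMSO. Assembly started with NaCl to […]; fluorescence (ex 477/em 525 nm) read after 6 min. EC50 by non-linear regression.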

[2] = test system: HBV (HepAD38 cells); assay: HBV replication assay: determination of HBV DNA from the supernatants of HepAD38 cells; type: cell-based; conditions: Hepatitis B virus, 144 h, HBV DNA in HepAD38 supernatant at day 6, qPCR, read-out: Cell activity
In short: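 HepAD38 cells seeded without tetracycline and treated with half-log compound dilutions; tetracycline-treated wells serve as cell control. On day 6, supernatant HBV DNA was purified and quantified by real-time PCR against plasmid standards; EC50 from non-linear regression of relative copy numbers, three experiments in triplicate.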

[3] = assembly started with NaCl, fluorescence read after 6 min, read-out: Assembly activity

T1 sequence (P03146 whole entry, the tested form may be a part): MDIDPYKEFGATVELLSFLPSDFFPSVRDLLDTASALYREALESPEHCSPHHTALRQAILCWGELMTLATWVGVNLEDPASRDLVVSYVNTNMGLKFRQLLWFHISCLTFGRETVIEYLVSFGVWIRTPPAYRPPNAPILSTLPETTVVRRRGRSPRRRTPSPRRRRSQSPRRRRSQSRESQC

Structure (SMILES) | IC50 [1, 3] [µM] | EC50 [2] [nM] | IC50 ([1]; read-out: Assembly activity, assembly started with NaCl, fluorescence read after 6 min) [µM]
O=C(c1cc2ccccc2[nH]1)N1CCc2nn3c(c2C1)C(=O)N(CCOCc1ccccc1)C1(CC3)CC1 [Example 90, 13′-[2-(benzyloxy)ethyl]-4′-(1H-indole-2-carbonyl)-4′,8′,9′,13′-tetraazaspiro[cyclopropane-1,12′-tricyclo[7.5.0.0^2,7]tetradecane]-1′,7′-dien-14′-one] | < 5 | < 1000 | –
O=C(c1cc2ccccc2[nH]1)N1CCc2onc(C(=O)N3CCC(O)CC34CC4)c2C1 (centres unmarked) [Example 95, 4-[5-(1H-indole-2-carbonyl)-4H,5H,6H,7H-[1,2]oxazolo[4,5-c]pyridine-3-carbonyl]-4-azaspiro[2.5]octan-7-ol] | < 5 | < 1000 | –
O=C(c1cc2ccccc2[nH]1)N1CCc2onc(C(=O)N3CCCOCC34CC4)c2C1 [Example 96, 4-[5-(1H-indole-2-carbonyl)-4H,5H,6H,7H-[1,2]oxazolo[4,5-c]pyridine-3-carbonyl]-8-oxa-4-azaspiro[2.6]nonane] | < 5 | < 1000 | –
CN(C(=O)c1noc2c1CN(C(=O)c1cc3ccccc3[nH]1)CC2)C1(c2ccc(C(=O)O)cc2)CC1 [Example 97, 4-{1-[N-methyl-5-(1H-indole-2-carbonyl)-4H,5H,6H,7H-[1,2]oxazolo[4,5-c]pyridine-3-amido]cyclopropyl}benzoic acid] | < 5 | < 1000 | –
CN(C(=O)c1noc2c1CN(C(=O)c1cc3ccccc3[nH]1)CC2)C1(c2ncc(C(=O)O)cn2)CC1 [Example 98, 2-{1-[N-methyl-5-(1H-indole-2-carbonyl)-4H,5H,6H,7H-[1,2]oxazolo[4,5-c]pyridine-3-amido]cyclopropyl}pyrimidine-5-carboxylic acid] | < 5 | 1000 to 10000 | –
C[C@@H](NC(=O)c1noc2c1CN(C(=O)c1cc3cc(F)c(Cl)cc3[nH]1)CC2)C(F)(F)F [Example 103, 5-(6-chloro-5-fluoro-1H-indole-2-carbonyl)-N-[(2R)-1,1,1-trifluoropropan-2-yl]-4H,5H,6H,7H-[1,2]oxazolo[4,5-c]pyridine-3-carboxamide] | < 5 | < 1000 | –
C[C@@H](NC(=O)c1noc2c1CN(C(=O)c1cc3c(Cl)cccc3[nH]1)CC2)C(F)(F)F [Example 104, 5-(4-chloro-1H-indole-2-carbonyl)-N-[(2R)-1,1,1-trifluoropropan-2-yl]-4H,5H,6H,7H-[1,2]oxazolo[4,5-c]pyridine-3-carboxamide] | < 5 | < 1000 | –
C[C@@H](NC(=O)c1noc2c1CN(C(=O)c1cc3c(F)c(F)ccc3[nH]1)CC2)C(F)(F)F [Example 105, 5-(4,5-difluoro-1H-indole-2-carbonyl)-N-[(2R)-1,1,1-trifluoropropan-2-yl]-4H,5H,6H,7H-[1,2]oxazolo[4,5-c]pyridine-3-carboxamide] | < 5 | < 1000 | –
Cc1c(F)ccc2[nH]c(C(=O)N3CCc4onc(C(=O)N[C@H](C)C(F)(F)F)c4C3)cc12 [Example 106, 5-(5-fluoro-4-methyl-1H-indole-2-carbonyl)-N-[(2R)-1,1,1-trifluoropropan-2-yl]-4H,5H,6H,7H-[1,2]oxazolo[4,5-c]pyridine-3-carboxamide] | < 5 | < 1000 | –
Cc1cc(F)cc2[nH]c(C(=O)N3CCc4onc(C(=O)N[C@H](C)C(F)(F)F)c4C3)cc12 [Example 107, 5-(6-fluoro-4-methyl-1H-indole-2-carbonyl)-N-[(2R)-1,1,1-trifluoropropan-2-yl]-4H,5H,6H,7H-[1,2]oxazolo[4,5-c]pyridine-3-carboxamide] | < 5 | < 1000 | –
CN(C(=O)c1noc2c1CN(C(=O)c1cc3ccccc3[nH]1)CC2)C1([C@H]2OC[C@H](N)CO2)CC1 [Example 108, 5-(1H-indole-2-carbonyl)-N-methyl-N-{1-[(2r,5r)-5-amino-1,3-dioxan-2-yl]cyclopropyl}-4H,5H,6H,7H-[1,2]oxazolo[4,5-c]pyridine-3-carboxamide] | < 5 | < 1000 | –
CN(C(=O)c1onc2c1CN(C(=O)c1cc3ccccc3[nH]1)CC2)C1(c2ccc(C(=O)O)cc2)CC1 [Example 109, 4-{1-[N-methyl-5-(1H-indole-2-carbonyl)-4H,5H,6H,7H-[1,2]oxazolo[4,3-c]pyridine-3-amido]cyclopropyl}benzoic acid] | < 5 | < 1000 | –
CN(C(=O)c1cnn2c1CN(C(=O)c1cc3c(Cl)c(F)c(Cl)cc3[nH]1)CC2)C1(c2ccc(C(=O)O)cc2)CC1 [Example 110, 4-{1-[N-methyl-5-(4,6-dichloro-5-fluoro-1H-indole-2-carbonyl)-4H,5H,6H,7H-pyrazolo [1,5-a]pyrazine-3-amido]cyclopropyl}benzoic acid] | – | < 1000 | < 5
